Reference: US20200405697A1, “Antitumor Agent” (Taiho Pharmaceutical Co., Ltd, priority 2017, published 2020)

Target: T1, human RNR (histidine tagged human M1 and human M2 proteins) (Homo sapiens, UniProt P23921)
T1 construct: made in house; host or cells: Escherichia coli
T1 sequence (P23921 1-792): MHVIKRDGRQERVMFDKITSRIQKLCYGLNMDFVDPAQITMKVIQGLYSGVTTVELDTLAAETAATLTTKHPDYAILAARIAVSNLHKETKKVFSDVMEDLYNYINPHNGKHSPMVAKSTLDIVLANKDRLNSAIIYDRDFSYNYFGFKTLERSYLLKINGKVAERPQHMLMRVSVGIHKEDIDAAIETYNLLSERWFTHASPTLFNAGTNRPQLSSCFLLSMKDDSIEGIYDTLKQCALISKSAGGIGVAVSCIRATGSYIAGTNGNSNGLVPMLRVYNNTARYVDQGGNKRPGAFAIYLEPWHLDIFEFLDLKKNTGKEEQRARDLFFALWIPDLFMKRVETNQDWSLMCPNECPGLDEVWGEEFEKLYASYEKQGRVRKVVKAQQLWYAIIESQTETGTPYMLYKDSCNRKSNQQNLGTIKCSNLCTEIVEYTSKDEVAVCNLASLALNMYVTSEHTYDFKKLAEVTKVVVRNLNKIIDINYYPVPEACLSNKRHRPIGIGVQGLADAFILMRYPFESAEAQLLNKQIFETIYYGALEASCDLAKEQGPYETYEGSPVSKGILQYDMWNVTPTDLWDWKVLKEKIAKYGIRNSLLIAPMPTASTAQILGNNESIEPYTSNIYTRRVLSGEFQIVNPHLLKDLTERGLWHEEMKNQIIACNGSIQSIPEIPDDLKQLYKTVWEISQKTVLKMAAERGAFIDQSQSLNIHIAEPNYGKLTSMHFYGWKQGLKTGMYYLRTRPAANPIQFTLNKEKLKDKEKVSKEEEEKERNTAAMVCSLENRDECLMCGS
Assay: Human RNR inhibition effect (dCDP formation from CDP)
Assay type: biochemical
Details: 10 μM CDP, 37° C. for 30 minutes, read-out: RNR inhibitory activity IC50
In short: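 His-tagged human M1 (isoform 1) and N-terminal 59-aa-truncated M2 (isoform 2), E. coli-expressed, Ni-purified, preincubated 20 min with compound (1% DMSO). Reaction with 10 μM CDP, 2 mM ATP, 0.24 mM NADPH, 6 mM DTT, 4 mM Mg acetate, 100 mM KCl, 50 mM HEPES pH 7.2, 30 min at 37° C. dCDP formed quantified by reverse-phase HPLC after heat stop.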

With Cc1ccc(F)c([C@@H](C)[C@H](NS(=O)(=O)c2ccc(Cl)c3c2OCCC3(O)C(F)(F)F)c2n[nH]c(=O)o2)c1C (single isomer, unassigned) [Example 220A] as the compound, how does the IC50 read?
Its IC50 is 0.06 µM.

For Cc1ccc(F)c([C@@H](C)[C@H](NS(=O)(=O)c2ccc3c(c2)C(C)(O)CCC3)c2n[nH]c(=O)o2)c1C (stereo partly drawn) [Example 194, N-((1S,2R)-2-(6-fluoro-2,3-dimethylphenyl)-1-(5-oxo-4,5-dihydro-1,3,4-oxadiazol-2-yl)propyl)-8-hydroxy-8-methyl-5,6,7,8-tetrahydronaphthalene-2-sulfonamide], which IC50 is on record?
The IC50 was 0.36 µM.

For CC(=O)N1CCOc2c(S(=O)(=O)N[C@H](c3n[nH]c(=O)o3)[C@H](C)c3cccc(C)c3C)ccc(Cl)c21 [Example 284, 4-acetyl-5-chloro-N-((1S,2R)-2-(2,3-dimethylphenyl)-1-(5-oxo-4,5-dihydro-1,3,4-oxadiazol-2-yl)propyl)-3,4-dihydro-2H-benzo[b][1,4]oxazine-8-sulfonamide], which IC50 is on record?
The IC50 was 0.56 µM.

Which IC50 does the source give for Cc1ccc(F)c([C@@H](C)[C@H](NS(=O)(=O)c2cccc3c2OC(C)(C)CC3=O)c2n[nH]c(=O)o2)c1C [Example 97, N-((1S,2R)-2-(6-fluoro-2,3-dimethylphenyl)-1-(5-oxo-4,5-dihydro-1,3,4-oxadiazol-2-yl)propyl)-2,2-dimethyl-4-oxochroman-8-sulfonamide] here?
The IC50 was 0.24 µM.

Which IC50 does the source give for Cc1c(C2CC2)ccc(F)c1[C@@H](C)[C@H](NS(=O)(=O)c1ccc(Cl)cc1C(N)=O)c1n[nH]c(=O)o1 [Example 26, 5-chloro-2-(N-((1S,2R)-2-(3-cyclopropyl-6-fluoro-2-methylphenyl)-1-(5-oxo-4,5-dihydro-1,3,4-oxadiazol-2-yl)propyl)sulfamoyl)benzamide] here?
Its IC50 is 0.16 µM.

How did the IC50 turn out when COc1cc(C(N)=O)c(S(=O)(=O)N[C@H](c2n[nH]c(=O)o2)[C@H](C)c2c(F)ccc(C)c2C)cc1OC [Example 260, 2-(N-((1S,2R)-2-(6-fluoro-2,3-dimethylphenyl)-1-(5-oxo-4,5-dihydro-1,3,4-oxadiazol-2-yl)propyl)sulfamoyl)-4,5-dimethoxybenzamide] was run?
Its IC50 is 0.36 µM.

With Cc1ccc(F)c([C@@H](C)[C@H](NS(=O)(=O)c2ccc(C3CC3)cc2C(N)=O)c2n[nH]c(=O)o2)c1C [Example 16, 5-Cyclopropyl-2-(N-((1S,2R)-2-(6-Fluoro-2,3-dimethylphenyl)-1-(5-oxo-4,5-dihydro-1,3,4-oxadiazol-2-yl)propyl)sulfamoyl)benzamide] as the compound, how does the IC50 read?
Its IC50 is 0.13 µM.

Cc1ccc(F)c([C@@H](C)[C@H](NS(=O)(=O)c2ccc(Cl)c3c2OCCC3(C)O)c2n[nH]c(=O)o2)c1C (single isomer, unassigned) [Example 207B] was tested. Which IC50 did it give?
The IC50 was 0.09 µM.

How did the IC50 turn out when Cc1ccc(F)c([C@@H](C)[C@H](NS(=O)(=O)c2ccc(Cl)c3c2OCCN3)c2n[nH]c(=O)o2)c1C [Example 275, 5-chloro-N-((1S,2R)-2-(6-fluoro-2,3-dimethylphenyl)-1-(5-oxo-4,5-dihydro-1,3,4-oxadiazol-2-yl)propyl)-3,4-dihydro-2H-benzo[b][1,4]oxazine-8-sulfonamide] was run?
The IC50 was 0.1 µM.

Which IC50 does the source give for COc1cc(Cl)ccc1S(=O)(=O)N[C@H](c1n[nH]c(=O)o1)[C@H](C)c1cccc2cccc(C)c12 [Example 71, 4-chloro-2-methoxy-N-((1S,2R)-2-(8-methylnaphthalen-1-yl)-1-(5-oxo-4,5-dihydro-1,3,4-oxadiazol-2-yl)propyl)benzenesulfonamide] here?
Its IC50 is 0.24 µM.

COc1cc(C(N)=O)ccc1S(=O)(=O)N[C@H](c1n[nH]c(=O)o1)[C@H](C)c1c(F)ccc(C)c1C [Example 346, 4-(N-((1S,2R)-(6-fluoro-2,3-dimethylphenyl)-1-(5-oxo-4,5-dihydro-1,3,4-oxadiazol-2 yl)propyl)sulfamoyl)-3-methoxybenzamide] was tested. Which IC50 did it give?
Its IC50 is 0.42 µM.

Which IC50 does the source give for Cc1ccc(F)c([C@@H](C)[C@H](NS(=O)(=O)c2ccc(Cl)cc2C(=O)NO)c2n[nH]c(=O)o2)c1C [Example 286, 5-chloro-2-(N-((1S,2R)-2-(6-fluoro-2,3-dimethylphenyl)-1-(5-oxo-4,5-dihydro-1,3,4-oxadiazol-2-yl)propyl)sulfamoyl)-N-hydroxybenzamide] here?
The IC50 was 0.07 µM.
